Laboratory results taken from US6737383B1, “Herbicidal oxadiazolidines” (priority 1999, dated 2004).

How the values were obtained:
cocklebur = experiment: Test B pre/postemergence cocklebur; assay type: in vivo, Xanthium strumarium
Procedure, shortened: (§1)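 Herbicidal effect was estimated by eye on a ten-point control scale after plants spent twelve to sixteen days in a greenhouse following soil or foliar treatment. Foliar sprays targeted plants at one to four leaves; all doses were formulated in a non-phytotoxic solvent with surfactant.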

wild oat = experiment: Test B pre/postemergence wild oat; assay type: in vivo, Avena fatua; conditions: for Plant response rating, Wild oats: Postemergence
Procedure, shortened: as §1

corn = experiment: Test B pre/postemergence corn; assay type: in vivo, Zea mays
Procedure, shortened: as §1

wheat = experiment: Test B pre/postemergence wheat; assay type: in vivo, Triticum aestivum; conditions: for Plant response rating, Wheat: Postemergence
Procedure, shortened: as §1

giant foxtail = experiment: Test B pre/postemergence giant foxtail; assay type: in vivo, Setaria faberii
Procedure, shortened: as §1

surinam grass = experiment: Test B pre/postemergence surinam grass; assay type: in vivo, Brachiaria decumbens
Procedure, shortened: as §1

crabgrass = experiment: Test B pre/postemergence crabgrass; assay type: in vivo, Digitaria sanguinalis
Procedure, shortened: as §1

sugar beet = experiment: Test B pre/postemergence sugar beet; assay type: in vivo, Beta vulgaris; conditions: for Plant response rating, Sugarbeets: Postemergence
Procedure, shortened: as §1

velvetleaf = experiment: Test B pre/postemergence velvetleaf; assay type: in vivo, Abutilon theophrasti; conditions: for Plant response rating, Velvetleaf: Postemergence
Procedure, shortened: as §1

soybean = experiment: Test B pre/postemergence soybean; assay type: in vivo, Glycine max; conditions: for Plant response rating, Soybean: Postemergence
Procedure, shortened: as §1

blackgrass = experiment: Test B pre/postemergence blackgrass; assay type: in vivo, Alopecurus myosuroides
Procedure, shortened: as §1

smallflower flatsedge = experiment: Test B flood test smallflower flatsedge; assay type: in vivo, Cyperus difformis; conditions: Rate 250 g/ha; Pre-emergence (flood test species); scale 0 to 10, 0 is no effect, 10 is complete control
Procedure, shortened: (§2)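 Read-out is a visual response score from 0 (no effect) to 10 (complete control), assigned by comparison with untreated controls. Treatment was applied at the 2-leaf stage, and plants stayed in the greenhouse for twelve to sixteen days before scoring.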

morningglory = experiment: Test B pre/postemergence morningglory; assay type: in vivo, Ipomoea hederacea
Procedure, shortened: as §1

purple nutsedge = experiment: Test B pre/postemergence purple nutsedge; assay type: in vivo, Cyperus rotundus
Procedure, shortened: as §1

rape = experiment: Test B pre/postemergence rape; assay type: in vivo, Brassica napus
Procedure, shortened: as §1

bedstraw = experiment: Test B pre/postemergence bedstraw; assay type: in vivo, Galium aparine
Procedure, shortened: as §1

duck salad = experiment: Test B flood test duck salad; assay type: in vivo, Heteranthera limosa; conditions: Rate 250 g/ha; Pre-emergence (flood test species); scale 0 to 10, 0 is no effect, 10 is complete control
Procedure, shortened: as §2

bamyardgrass = experiment: Test B flood test barnyardgrass; assay type: in vivo, Echinochloa crus-galli; conditions: Rate 250 g/ha; Pre-emergence (flood test species); scale 0 to 10, 0 is no effect, 10 is complete control
Procedure, shortened: as §2

pigweed = experiment: Test B pre/postemergence pigweed; assay type: in vivo, Amaranthus retroflexus; conditions: for Plant response rating, Redroot pigweed: Postemergence
Procedure, shortened: as §1

rice = experiment: Test B flood test rice; assay type: in vivo, Oryza sativa; conditions: Rate 250 g/ha; Pre-emergence (flood test species); scale 0 to 10, 0 is no effect, 10 is complete control
Procedure, shortened: as §2

[1] = Postemergence, Rate 62 g/ha, scale of 0 to 10, 0 is no effect, 10 is complete control
[2] = Postemergence, Rate 125 g/ha, scale 0 to 10, 0 is no effect, 10 is complete control
[3] = Postemergence, Rate 500 g/ha, scale of 0 to 10 where 0 is no effect and 10 is complete control
[4] = Preemergence, Rate 62 g/ha, scale 0 to 10 (0 no effect, 10 complete control)
[5] = Preemergence, Rate 125 g/ha, scale 0 to 10, 0 is no effect, 10 is complete control
[6] = Preemergence, Rate 500 g/ha, scale of 0 to 10 where 0 is no effect and 10 is complete control
[7] = Rate 250 g/ha, Postemergence, scale of 0 to 10 where 0 is no effect and 10 is complete control
[8] = Rate 500 g/ha, scale of 0 to 10 where 0 is no effect and 10 is complete control
[9] = Rate 250 g/ha, scale of 0 to 10 where 0 is no effect and 10 is complete control

## Cc1noc(C)c1Cn1c(=O)on(C(=O)N(c2ccccc2)C(C)C)c1=O [Compound 569]
cocklebur; [1]
  Cocklebur plant response rating: 0
cocklebur; [2]
  Cocklebur plant response rating: 2
cocklebur; [3]
  Plant response rating, Cocklebur: 2
cocklebur; [4]
  Cocklebur plant response rating: 0
cocklebur; [5]
  Cocklebur plant response rating: 0
cocklebur; Preemergence, Rate 250 g/ha
  Cocklebur plant response rating (0 to 10 scale): 0
cocklebur; [6]
  Cocklebur plant response rating: 0
cocklebur; [7]
  Plant response rating, Cocklebur: 2
Wild oat; [8]
  Plant response rating, Wild oats: 0
Wild oat; [4]
  Wild oats plant response rating: 0
Wild oat; [5]
  Wild oats plant response rating: 0
Wild oat; Preemergence, Rate 250 g/ha
  Wild oats plant response rating (0 to 10 scale): 6
Wild oat; [6]
  Wild oats plant response rating: 9
Wild oat; [9]
  Plant response rating, Wild oats: 0
corn; [1]
  Corn plant response rating: 0
corn; [2]
  Corn plant response rating: 0
corn; [3]
  Plant response rating, Corn: 2
corn; [4]
  Corn plant response rating: 0
corn; [5]
  Corn plant response rating: 0
corn; Preemergence, Rate 250 g/ha
  Corn plant response rating (0 to 10 scale): 0
corn; [6]
  Corn plant response rating: 9
corn; [7]
  Plant response rating, Corn: 0
wheat; [8]
  Plant response rating, Wheat: 0
wheat; [4]
  Wheat plant response rating: 0
wheat; [5]
  Wheat plant response rating: 0
wheat; Preemergence, Rate 250 g/ha
  Wheat plant response rating (0 to 10 scale): 0
wheat; [6]
  Wheat plant response rating: 4
wheat; [9]
  Plant response rating, Wheat: 0
Giant foxtail; [1]
  Giant foxtail plant response rating: 0
Giant foxtail; [2]
  Giant foxtail plant response rating: 3
Giant foxtail; [3]
  Plant response rating, Giant foxtail: 4
Giant foxtail; [4]
  Giant foxtail plant response rating: 9
Giant foxtail; [5]
  Giant foxtail plant response rating: 9
Giant foxtail; Preemergence, Rate 250 g/ha
  Giant foxtail plant response rating (0 to 10 scale): 9
Giant foxtail; [6]
  Giant foxtail plant response rating: 10
Giant foxtail; [7]
  Plant response rating, Giant foxtail: 4
Surinam grass; [1]
  B. signalgrass plant response rating: 0
Surinam grass; [2]
  B. signalgrass plant response rating: 0
Surinam grass; [3]
  Plant response rating, B. signalgrass: 4
Surinam grass; [4]
  B. signalgrass plant response rating: 0
Surinam grass; [5]
  B. signalgrass plant response rating: 9
Surinam grass; Preemergence, Rate 250 g/ha
  B. signalgrass plant response rating (0 to 10 scale, 0 is no effect, 10 is complete control): 9
Surinam grass; [6]
  B. signalgrass plant response rating: 9
Surinam grass; [7]
  Plant response rating, B. signalgrass: 0
crabgrass; [1]
  Crabgrass plant response rating: 0
crabgrass; [2]
  Crabgrass plant response rating: 0
crabgrass; [3]
  Plant response rating, Crabgrass: 6
crabgrass; [4]
  Crabgrass plant response rating: 7
crabgrass; [5]
  Crabgrass plant response rating: 9
crabgrass; Preemergence, Rate 250 g/ha
  Crabgrass plant response rating (0 to 10 scale): 9
crabgrass; [6]
  Crabgrass plant response rating: 9
crabgrass; [7]
  Plant response rating, Crabgrass: 6
Sugar beet; [8]
  Plant response rating, Sugarbeets: 0
Sugar beet; [4]
  Sugarbeets plant response rating: 0
Sugar beet; [5]
  Sugarbeets plant response rating: 0
Sugar beet; Preemergence, Rate 250 g/ha
  Sugarbeets plant response rating (0 to 10 scale): 0
Sugar beet; [6]
  Sugarbeets plant response rating: 3
Sugar beet; [9]
  Plant response rating, Sugarbeets: 0
velvetleaf; [8]
  Plant response rating, Velvetleaf: 3
velvetleaf; [4]
  Velvetleaf plant response rating: 0
velvetleaf; [5]
  Velvetleaf plant response rating: 0
velvetleaf; Preemergence, Rate 250 g/ha
  Velvetleaf plant response rating (0 to 10 scale): 0
velvetleaf; [6]
  Velvetleaf plant response rating: 7
velvetleaf; [9]
  Plant response rating, Velvetleaf: 2
soybean; [8]
  Plant response rating, Soybean: 4
soybean; [4]
  Soybean plant response rating: 0
soybean; [5]
  Soybean plant response rating: 0
soybean; Preemergence, Rate 250 g/ha
  Soybean plant response rating (0 to 10 scale): 0
soybean; [6]
  Soybean plant response rating: 0
soybean; [9]
  Plant response rating, Soybean: 4
blackgrass; [1]
  Blackgrass plant response rating: 0
blackgrass; [2]
  Blackgrass plant response rating: 0
blackgrass; [3]
  Plant response rating, Blackgrass: 3
blackgrass; [4]
  Blackgrass plant response rating: 0
blackgrass; [5]
  Blackgrass plant response rating: 0
blackgrass; Preemergence, Rate 250 g/ha
  Blackgrass plant response rating (0 to 10 scale): 9
blackgrass; [6]
  Blackgrass plant response rating: 9
blackgrass; [7]
  Plant response rating, Blackgrass: 2
Smallflower flatsedge
  S. Flatsedge plant response rating: 0
morningglory; [1]
  Morningglory plant response rating: 3
morningglory; [2]
  Morningglory plant response rating: 10
morningglory; [3]
  Plant response rating, Morningglory: 10
morningglory; [4]
  Morningglory plant response rating: 0
morningglory; [5]
  Morningglory plant response rating: 0
morningglory; Preemergence, Rate 250 g/ha
  Morningglory plant response rating (0 to 10 scale): 0
morningglory; [6]
  Morningglory plant response rating: 0
morningglory; [7]
  Plant response rating, Morningglory: 10
Purple nutsedge; [1]
  Nutsedge plant response rating: 0
Purple nutsedge; [2]
  Nutsedge plant response rating: 0
Purple nutsedge; [3]
  Plant response rating, Nutsedge: 0
Purple nutsedge; [4]
  Nutsedge plant response rating: 0
Purple nutsedge; [5]
  Nutsedge plant response rating: 0
Purple nutsedge; Preemergence, Rate 250 g/ha
  Nutsedge plant response rating (0 to 10 scale): 0
Purple nutsedge; [6]
  Nutsedge plant response rating: 0
Purple nutsedge; [7]
  Plant response rating, Nutsedge: 0
rape; [1]
  Rape plant response rating: 0
rape; [2]
  Rape plant response rating: 0
rape; [3]
  Plant response rating, Rape: 0
rape; [4]
  Rape plant response rating: 0
rape; [5]
  Rape plant response rating: 0
rape; Preemergence, Rate 250 g/ha
  Rape plant response rating (0 to 10 scale): 4
rape; [6]
  Rape plant response rating: 9
rape; [7]
  Plant response rating, Rape: 0
bedstraw; [1]
  Bedstraw plant response rating: 0
bedstraw; [4]
  Bedstraw plant response rating: 0
bedstraw; [5]
  Bedstraw plant response rating: 3
bedstraw; Preemergence, Rate 250 g/ha
  Bedstraw plant response rating (0 to 10 scale): 0
bedstraw; [6]
  Bedstraw plant response rating: 0
Duck salad
  Ducksalad plant response rating: 0
bamyardgrass
  Barnyardgrass plant response rating: 0
pigweed; [8]
  Plant response rating, Redroot pigweed: 4
pigweed; [4]
  Redroot pigweed plant response rating: 7
pigweed; [5]
  Redroot pigweed plant response rating: 9
pigweed; Preemergence, Rate 250 g/ha
  Redroot pigweed plant response rating (0 to 10 scale): 9
pigweed; [6]
  Redroot pigweed plant response rating: 10
pigweed; [9]
  Plant response rating, Redroot pigweed: 4
rice
  Rice plant response rating: 0
